Data as given in patent US10287291B2, “Seco-cyclopropapyrroloindole compounds, antibody-drug conjugates thereof, and methods of making and use” (priority 2016, dated 2019).
pEC50: −log10 of the molar value. Read-outs that look alike come from different tables or passages of the source.

Experiments:
[1] = test system: OVCAR3 (human ovarian cancer cell line); experiment: 72 hr ATP luminescence proliferation inhibition, OVCAR3; format: cell-based
Description: (§1) Proliferation inhibition was measured using a 72 hr ATP luminescence assay (Cheng et al., U.S. Pat. No. 8,394,922 B2 (2013)).
(§2) Proliferation inhibition was measured against: (a) H226 (human mesothelioma (lung) cancer cell line); (b) N87 (human gastric (stomach) cancer cell line); (c) OVCAR3 (human ovarian cancer cell line); (d) HCT116 (human colon cancer cell line); and (e) HCT116/VM46 (multidrug and paclitaxel resistant subline of HCT116).

[2] = test system: N87 (human gastric (stomach) cancer cell line); experiment: 72 hr ATP luminescence proliferation inhibition, N87; format: cell-based; settings: read-out: Proliferation Inhibition of Cancer Cells EC50, N87
Description: as §1, §2

[3] = test system: H226 (human mesothelioma (lung) cancer cell line); experiment: 72 hr ATP luminescence proliferation inhibition, H226; format: cell-based
Description: as §1, §2

[4] = test system: HCT116/VM46 (multidrug and paclitaxel resistant subline of HCT116); experiment: 72 hr ATP luminescence proliferation inhibition, HCT116/VM46; format: cell-based, human; settings: read-out: Proliferation Inhibition of Cancer Cells EC50, HCT116/VM46
Description: as §1, §2

[5] = test system: HCT116 (human colon cancer cell line); experiment: 72 hr ATP luminescence proliferation inhibition, HCT116; format: cell-based
Description: as §1, §2

[6] = Homo sapiens, OVCAR-3, read-out: Proliferation Inhibition of Cancer Cells EC50, OVCAR3
[7] = Homo sapiens, NCI-H226, read-out: Proliferation Inhibition of Cancer Cells EC50, H226
[8] = Homo sapiens, HCT-116/VM46, HCT116/VM46 cell line
[9] = Homo sapiens, HCT-116, read-out: Proliferation Inhibition of Cancer Cells EC50, HCT116
[10] = read-out: Proliferation Inhibition of Cancer Cells EC50, OVCAR3
[11] = read-out: Proliferation Inhibition of Cancer Cells EC50, H226
[12] = read-out: Proliferation Inhibition of Cancer Cells EC50, HCT116

Nc1ccc2[nH]c(C(=O)N3C[C@@H](CCl)c4c3cc(O)c3[nH]c(C(=O)N5CCOCC5)cc43)cc2c1 [Ia-19]
pEC50 [1, 6]: 8.96 | pEC50 ([2]; Homo sapiens): 8.51 | pEC50 [3, 7]: 8.38 | pEC50 [4, 8]: 8.46 | pEC50 [5, 9]: 8.49

COc1ccc2[nH]c(C(=O)N3C[C@@H](CCl)c4c3cc(O)c3[nH]c(C(=O)N5CCN(C)CC5)cc43)cc2c1 [Ia-20]
pEC50 [1, 10]: 8.82 | pEC50 [2]: 8.46 | pEC50 [3, 11]: 8.19 | pEC50 ([4]; HCT116/VM46 cell line): 8.59 | pEC50 [5, 12]: 8.72

CNCCN(C)C(=O)c1cc2c3c(cc(O)c2[nH]1)N(C(=O)c1cc2cc(OC)ccc2[nH]1)C[C@H]3CCl [Ia-21]
pEC50 [1, 10]: 8.92 | pEC50 [2]: 8.66 | pEC50 [3, 11]: 9.00 | pEC50 ([4]; HCT116/VM46 cell line): 9.30 | pEC50 [5, 12]: 9.07

COc1ccc2[nH]c(C(=O)N3C[C@@H](CCl)c4c3cc(O)c3[nH]c(C(=O)NCCOCCO)cc43)cc2c1 [Ia-22]
pEC50 [1, 10]: 8.96 | pEC50 [2]: 8.72 | pEC50 [3, 11]: 8.29 | pEC50 ([4]; HCT116/VM46 cell line): 8.92 | pEC50 [5, 12]: 8.92

CC[C@@H](CO)NC(=O)c1cc2c3c(cc(O)c2[nH]1)N(C(=O)c1cc2cc(OC)ccc2[nH]1)C[C@H]3CCl [Ia-23]
pEC50 [1, 10]: 8.96 | pEC50 [2]: 8.59 | pEC50 [3, 11]: 8.12 | pEC50 ([4]; HCT116/VM46 cell line): 8.72 | pEC50 [5, 12]: 9.05

CNCCN(CCOCCO)C(=O)c1cc2c3c(cc(O)c2[nH]1)N(C(=O)c1cc2cc(OC)ccc2[nH]1)C[C@H]3CCl [Ia-24]
pEC50 [1, 10]: 6.60 | pEC50 [3, 11]: 6.60 | pEC50 ([4]; HCT116/VM46 cell line): 6.60 | pEC50 [5, 12]: 6.60

Nc1ccc2[nH]c(C(=O)N3C[C@@H](CCl)c4c3cc(O)c3[nH]c(C(=O)N5CCNCC5)cc43)cc2c1 [Ia-25]
pEC50 [1, 10]: 7.66 | pEC50 [2]: 7.42 | pEC50 [3, 11]: 7.64 | pEC50 ([4]; HCT116/VM46 cell line): 7.62 | pEC50 [5, 12]: 7.89

CN1CCN(C(=O)c2cc3c4c(cc(O)c3[nH]2)N(C(=O)c2cc3cc(N)ccc3[nH]2)C[C@H]4CCl)CC1 [Ia-26]
pEC50 [1, 10]: 8.57 | pEC50 [3, 11]: 8.02 | pEC50 ([4]; HCT116/VM46 cell line): 7.92 | pEC50 [5, 12]: 8.39

CN(C)CCOc1ccc2[nH]c(C(=O)N3C[C@@H](CCl)c4c3cc(O)c3[nH]c(C(=O)Nc5ccc(O)cc5)cc43)cc2c1 [Ia-27]
pEC50 [2]: 8.46 | pEC50 [3, 11]: 8.85

CCCOc1ccc2[nH]c(C(=O)N3C[C@@H](CCl)c4c3cc(O)c3[nH]c(C(=O)N5CCCOCC5)cc43)cc2c1 [Ia-28]
pEC50 [1, 10]: 10.24 | pEC50 [2]: 10.18 | pEC50 [3, 11]: 9.52 | pEC50 ([4]; HCT116/VM46 cell line): 10.05 | pEC50 [5, 12]: 10.10

COCCOc1ccc2[nH]c(C(=O)N3C[C@@H](CCl)c4c3cc(O)c3[nH]c(C(=O)Nc5ccc(N)cc5)cc43)cc2c1 [Ia-29]
pEC50 [2]: 9.59 | pEC50 [3, 11]: 9.20

COc1cc2cc(C(=O)N3C[C@@H](CCl)c4c3cc(O)c3[nH]c(C(=O)N5CCOCC5)cc43)[nH]c2c(OC)c1OC [Ia-30]
pEC50 [1, 6]: 10.49 | pEC50 ([2]; Homo sapiens): 10.35 | pEC50 [3, 7]: 10.74 | pEC50 [4, 8]: 10.01 | pEC50 [5, 9]: 10.48

CC(C)CCOc1ccc2[nH]c(C(=O)N3C[C@@H](CCl)c4c3cc(O)c3[nH]c(C(=O)N5CCOCC5)cc43)cc2c1 [Ia-31]
pEC50 [1, 10]: 9.28 | pEC50 [2]: 9.37 | pEC50 [3, 11]: 9.62 | pEC50 ([4]; HCT116/VM46 cell line): 9.07 | pEC50 [5, 12]: 9.21

O=C(Nc1ccc2nc(C(=O)N3C[C@@H](CCl)c4c3cc(O)c3[nH]c(C(=O)N5CCOCC5)cc43)cn2c1)c1ccc(O)cc1 [Ib-01]
pEC50 [1, 10]: 8.55 | pEC50 [2]: 8.44 | pEC50 [3, 11]: 8.62 | pEC50 ([4]; HCT116/VM46 cell line): 8.46 | pEC50 [5, 12]: 8.49

COCOc1ccc(C(=O)Nc2ccc3nc(C(=O)N4C[C@@H](CCl)c5c4cc(O)c4[nH]c(C(=O)N6CCOCC6)cc54)cn3c2)cc1 [Ib-02]
pEC50 [1, 10]: 9.28 | pEC50 [2]: 9.02 | pEC50 [3, 11]: 9.00 | pEC50 ([4]; HCT116/VM46 cell line): 8.72 | pEC50 [5, 12]: 9.19

Nc1ccc2[nH]c(C(=O)Nc3ccc4[nH]c(C(=O)N5C[C@@H](CCl)c6c5cc(O)c5[nH]c(C(=O)N7CCOCC7)cc65)cc4c3)cc2c1 [Ic-01]
pEC50 [1, 6]: 9.05 | pEC50 ([2]; Homo sapiens): 8.82 | pEC50 [3, 7]: 9.04 | pEC50 [4, 8]: 9.12 | pEC50 [5, 9]: 9.37

O=C(Nc1ccc2[nH]c(C(=O)N3C[C@@H](CCl)c4c3cc(O)c3[nH]c(C(=O)N5CCOCC5)cc43)cc2c1)c1ccc(O)cc1 [Id-01]
pEC50 [1, 6]: 8.96 | pEC50 ([2]; Homo sapiens): 8.64 | pEC50 [5, 9]: 9.03

Nc1ccc(C(=O)Nc2ccc3[nH]c(C(=O)N4C[C@@H](CCl)c5c4cc(O)c4[nH]c(C(=O)N6CCOCC6)cc54)cc3c2)cc1 [Id-02]
pEC50 ([2]; Homo sapiens): 8.85 | pEC50 [3, 7]: 8.92
